Reference: publication PMC8288134, “Synthesis, potential antitumor activity, cell cycle analysis, and multitarget mechanisms of novel hydrazones incorporating a 4-methylsulfonylbenzene scaffold: a molecular docking study” (Journal of Enzyme Inhibition and Medicinal Chemistry, 2021)
Like-named read-outs stand apart in the source and are kept apart here.

Columns and labels:
UO-31 = experiment: NCI antitumor screen (SRB); type: cell-based, human; details: Homo sapiens, UO-31, UO-31; one dose 10 µM; read-out: Growth inhibition percentage (GI%)
SNB-75 = experiment: NCI antitumor screen (SRB); type: cell-based; details: Homo sapiens, one dose 10 µM, read-out: Growth inhibition percentage (GI%)
HT29 = experiment: NCI antitumor screen (SRB); type: cell-based; details: Homo sapiens, HT-29, one dose 10 µM, read-out: Growth inhibition percentage (GI%)
NCI-H226 = experiment: NCI antitumor screen (SRB); type: cell-based; details: Homo sapiens, one dose 10 µM, read-out: Growth inhibition percentage (GI%)
NCI-H522 = experiment: NCI antitumor screen (SRB); type: cell-based; details: Homo sapiens
A549/ATCC = experiment: NCI antitumor screen (SRB); type: cell-based; details: Homo sapiens, one dose 10 µM, read-out: Growth inhibition percentage (GI%)
MDA-MB-468 = experiment: NCI antitumor screen (SRB); type: cell-based; details: Homo sapiens, one dose 10 µM, read-out: Growth inhibition percentage (GI%)
UACC-257 = experiment: NCI antitumor screen (SRB); type: cell-based, human; details: Homo sapiens, one dose 10 µM, read-out: Growth inhibition percentage (GI%)
HOP-62 = experiment: NCI antitumor screen (SRB); type: cell-based; details: Homo sapiens; HOP-62; one dose 10 µM; read-out: Growth inhibition percentage (GI%)
[1] = system: full panel of 59 cancer cell lines; experiment: NCI antitumor screen, full panel; details: one dose 10 µM
MALME-3M = experiment: NCI antitumor screen (SRB); type: cell-based; details: Homo sapiens, one dose 10 µM, read-out: Growth inhibition percentage (GI%)
IGROV1 = experiment: NCI antitumor screen (SRB); type: cell-based; details: Homo sapiens, IGROV-1, one dose 10 µM, read-out: Growth inhibition percentage (GI%)
HL-60(TB) = experiment: cells; type: cell-based, human; details: Homo sapiens, HL-60, HL-60(TB); one dose 10 µM; read-out: Growth inhibition percentage (GI%)
PC-3 = experiment: NCI antitumor screen (SRB); type: cell-based; details: Homo sapiens, one dose 10 µM, read-out: Growth inhibition percentage (GI%)
HCT-116 = experiment: NCI antitumor screen (SRB); type: cell-based; details: Homo sapiens, read-out: Growth inhibition percentage (GI%)
CAKI-1 = experiment: NCI antitumor screen (SRB); type: cell-based; details: Homo sapiens, one dose 10 µM, read-out: Growth inhibition percentage (GI%)
K-562 = experiment: NCI antitumor screen (SRB); type: cell-based; details: Homo sapiens, K562, read-out: Growth inhibition percentage (GI%)
MOLT-4 = experiment: NCI antitumor screen (SRB); type: cell-based; details: Homo sapiens, one dose 10 µM, read-out: Growth inhibition percentage (GI%)
SR = experiment: NCI antitumor screen (SRB); type: cell-based; details: Homo sapiens, one dose 10 µM, read-out: Growth inhibition percentage (GI%)
UACC-62 = experiment: NCI antitumor screen (SRB); type: cell-based; details: Homo sapiens, one dose 10 µM, read-out: Growth inhibition percentage (GI%)
A498 = experiment: NCI antitumor screen (SRB); type: cell-based; details: Homo sapiens, one dose 10 µM, read-out: Growth inhibition percentage (GI%)
NCI-H460 = experiment: NCI antitumor screen (SRB); type: cell-based; details: Homo sapiens, one dose 10 µM, read-out: Growth inhibition percentage (GI%)
OVCAR-8 = experiment: NCI antitumor screen (SRB); type: cell-based; details: Homo sapiens, one dose 10 µM, read-out: Growth inhibition percentage (GI%)
SK-OV-3 = experiment: NCI antitumor screen (SRB); type: cell-based; details: Homo sapiens, one dose 10 µM, read-out: Growth inhibition percentage (GI%)
SNB-19 = experiment: NCI antitumor screen (SRB); type: cell-based; details: Homo sapiens, one dose 10 µM, read-out: Growth inhibition percentage (GI%)
SF-268 = experiment: NCI antitumor screen (SRB); type: cell-based; details: Homo sapiens, one dose 10 µM, read-out: Growth inhibition percentage (GI%)
MCF7 = experiment: NCI antitumor screen (SRB); type: cell-based; details: Homo sapiens, one dose 10 µM, read-out: Growth inhibition percentage (GI%)
NCI/ADR-RES = experiment: NCI antitumor screen (SRB); type: cell-based; details: Homo sapiens, one dose 10 µM, read-out: Growth inhibition percentage (GI%)
MDA-MB-231/ATCC = experiment: NCI antitumor screen (SRB); type: cell-based; details: Homo sapiens, one dose 10 µM, read-out: Growth inhibition percentage (GI%)
EKVX = experiment: NCI antitumor screen (SRB); type: cell-based; details: Homo sapiens, one dose 10 µM, read-out: Growth inhibition percentage (GI%)
BT-549 = experiment: NCI antitumor screen (SRB); type: cell-based; details: Homo sapiens, one dose 10 µM, read-out: Growth inhibition percentage (GI%)
U251 = experiment: NCI antitumor screen (SRB); type: cell-based; details: Homo sapiens, U-251, one dose 10 µM, read-out: Growth inhibition percentage (GI%)
LOX IMVI = experiment: NCI antitumor screen (SRB); type: cell-based; details: Homo sapiens, one dose 10 µM, read-out: Growth inhibition percentage (GI%)
[2] = system: ovarian cancer tumour cell lines; experiment: NCI antitumor screen, subpanel; type: cell-based; details: 10 µM
OVCAR-3 = experiment: NCI antitumor screen (SRB); type: cell-based; details: Homo sapiens, one dose 10 µM, read-out: Growth inhibition percentage (GI%)
NCI-H23 = experiment: NCI antitumor screen (SRB); type: cell-based; details: Homo sapiens, one dose 10 µM, read-out: Growth inhibition percentage (GI%)
SK-MEL-28 = experiment: NCI antitumor screen (SRB); type: cell-based, human; details: Homo sapiens, SK-MEL-28, SK-MEL-28; one dose 10 µM; read-out: Growth inhibition percentage (GI%)
ACHN = experiment: NCI antitumor screen (SRB); type: cell-based; details: Homo sapiens, one dose 10 µM, read-out: Growth inhibition percentage (GI%)
786-0 = experiment: NCI antitumor screen (SRB); type: cell-based; details: Homo sapiens, one dose 10 µM, read-out: Growth inhibition percentage (GI%)
DU-145 = experiment: NCI antitumor screen (SRB); type: cell-based; details: Homo sapiens, one dose 10 µM, read-out: Growth inhibition percentage (GI%)
SF-295 = experiment: NCI antitumor screen (SRB); type: cell-based; details: Homo sapiens, one dose 10 µM, read-out: Growth inhibition percentage (GI%)
MDA-MB-435 = experiment: NCI antitumor screen (SRB); type: cell-based; details: Homo sapiens, one dose 10 µM, read-out: Growth inhibition percentage (GI%)
RXF 393 = experiment: NCI antitumor screen (SRB); type: cell-based; details: Homo sapiens, one dose 10 µM, read-out: Growth inhibition percentage (GI%)
SF-539 = experiment: NCI antitumor screen (SRB); type: cell-based; details: Homo sapiens, one dose 10 µM, read-out: Growth inhibition percentage (GI%)
PRMI-8226 = experiment: NCI antitumor screen (SRB); type: cell-based; details: Homo sapiens, one dose 10 µM, read-out: Growth inhibition percentage (GI%)
OVCAR-5 = experiment: NCI antitumor screen (SRB); type: cell-based; details: Homo sapiens, one dose 10 µM, read-out: Growth inhibition percentage (GI%)
KM12 = experiment: NCI antitumor screen (SRB); type: cell-based; details: Homo sapiens, one dose 10 µM, read-out: Growth inhibition percentage (GI%)
CCRF-CEM = experiment: NCI antitumor screen (SRB); type: cell-based; details: Homo sapiens, one dose 10 µM, read-out: Growth inhibition percentage (GI%)
HS 578 T = experiment: NCI antitumor screen (SRB); type: cell-based; details: Homo sapiens, one dose 10 µM, read-out: Growth inhibition percentage (GI%)
SN12C = experiment: NCI antitumor screen (SRB); type: cell-based; details: Homo sapiens, one dose 10 µM, read-out: Growth inhibition percentage (GI%)
HCT-15 = experiment: NCI antitumor screen (SRB); type: cell-based; details: Homo sapiens, one dose 10 µM, read-out: Growth inhibition percentage (GI%)
OVCAR-4 = experiment: NCI antitumor screen (SRB); type: cell-based; details: Homo sapiens, one dose 10 µM, read-out: Growth inhibition percentage (GI%)
M14 = experiment: NCI antitumor screen (SRB); type: cell-based; details: Homo sapiens, one dose 10 µM, read-out: Growth inhibition percentage (GI%)
SW-620 = experiment: NCI antitumor screen (SRB); type: cell-based; details: Homo sapiens, one dose 10 µM, read-out: Growth inhibition percentage (GI%)
T-47D = experiment: NCI antitumor screen (SRB); type: cell-based; details: Homo sapiens, T47D, one dose 10 µM, read-out: Growth inhibition percentage (GI%)
COLO 205 = experiment: NCI antitumor screen (SRB); type: cell-based; details: Homo sapiens, one dose 10 µM, read-out: Growth inhibition percentage (GI%)
HCC-2998 = experiment: NCI antitumor screen (SRB); type: cell-based; details: Homo sapiens, one dose 10 µM, read-out: Growth inhibition percentage (GI%)
TK-10 = experiment: NCI antitumor screen (SRB); type: cell-based; details: Homo sapiens, one dose 10 µM, read-out: Growth inhibition percentage (GI%)

## CS(=O)(=O)c1ccc(C(=O)NN=Cc2ccc(Cl)cc2Cl)cc1 [Compound 17, N'-(2,4-Dichlorobenzylidene)-4-(methylsulfonyl)benzohydrazide]
UO-31
  inhibition at 10 µM: 12.7%
SNB-75
  inhibition at 10 µM: 10.9%
HT29
  inhibition at 10 µM: 11.3%
NCI-H226
  inhibition at 10 µM: 13.6%
NCI-H522; NCI-H522, one dose 10 µM, read-out: Growth inhibition percentage (GI%)
  inhibition at 10 µM: 25%
A549/ATCC
  inhibition at 10 µM: 13.7%
MDA-MB-468
  inhibition at 10 µM: 18.1%
UACC-257; UACC-257, UACC-257
  inhibition at 10 µM: 29.4%
HOP-62
  inhibition at 10 µM: 10.2%
[1]
  PCE: positive cytotoxic effect (number of cell lines with GI 10 to 100% / total number of cell lines): 9/59

## CS(=O)(=O)c1ccc(C(=O)NN=Cc2ccc(Cl)c(Cl)c2)cc1 [Compound 18, N'-(3,4-Dichlorobenzylidene)-4-(methylsulfonyl)benzohydrazide]
MALME-3M
  inhibition at 10 µM: 12.2%
IGROV1
  inhibition at 10 µM: 15%
HL-60(TB)
  inhibition at 10 µM: 30.6%
PC-3
  inhibition at 10 µM: 10.3%
NCI-H522; NCI-H522, read-out: Growth inhibition percentage (GI%)
  inhibition at 10 µM: 17.2%
HCT-116
  inhibition at 10 µM: 12.7%
CAKI-1
  inhibition at 10 µM: 10.1%
A549/ATCC
  inhibition at 10 µM: 20.1%
K-562
  inhibition at 10 µM: 17.7%
UACC-257; UACC-257
  inhibition at 10 µM: 21.8%
MOLT-4
  inhibition at 10 µM: 31.7%
SR
  inhibition at 10 µM: 24.5%
UACC-62
  inhibition at 10 µM: 11.2%
[1]
  PCE: positive cytotoxic effect (number of cell lines with GI 10 to 100% / total number of cell lines): 14/59
A498
  inhibition at 10 µM: 16%

## Cc1ccc(NC(=O)c2ccc(CN3CCN(C)CC3)cc2)cc1Nc1nccc(-c2cccnc2)n1 [Imatinib, imatinib, reference compound]
NCI-H460
  inhibition at 10 µM: < 10%
OVCAR-8
  inhibition at 10 µM: < 10%
SK-OV-3
  inhibition at 10 µM: < 10%
MALME-3M
  inhibition at 10 µM: < 10%
SNB-19
  inhibition at 10 µM: < 10%
SF-268
  inhibition at 10 µM: < 10%
IGROV1
  inhibition at 10 µM: < 10%
MCF7
  inhibition at 10 µM: < 10%
UO-31
  inhibition at 10 µM: < 10%
NCI/ADR-RES
  inhibition at 10 µM: < 10%
MDA-MB-231/ATCC
  inhibition at 10 µM: 11.2%
EKVX
  inhibition at 10 µM: 15.7%
BT-549
  inhibition at 10 µM: < 10%
U251
  inhibition at 10 µM: 10.6%
LOX IMVI
  inhibition at 10 µM: 11.6%
SNB-75
  inhibition at 10 µM: < 10%
[2]
  GI (range over subpanel cell lines): < 10.0%
OVCAR-3
  inhibition at 10 µM: < 10%
NCI-H23
  inhibition at 10 µM: 17.1%
SK-MEL-28
  inhibition at 10 µM: < 10%
HL-60(TB)
  inhibition at 10 µM: < 10%
ACHN
  inhibition at 10 µM: < 10%
786-0
  inhibition at 10 µM: < 10%
DU-145
  inhibition at 10 µM: 14.4%
SF-295
  inhibition at 10 µM: 15.1%
MDA-MB-435
  inhibition at 10 µM: < 10%
HT29
  inhibition at 10 µM: 47.1%
PC-3
  inhibition at 10 µM: 10.6%
RXF 393
  inhibition at 10 µM: < 10%
SF-539
  inhibition at 10 µM: 24.5%
NCI-H226
  inhibition at 10 µM: 10.6%
HCT-116
  inhibition at 10 µM: 18.6%
PRMI-8226
  inhibition at 10 µM: 12.6%
OVCAR-5
  inhibition at 10 µM: < 10%
CAKI-1
  inhibition at 10 µM: < 10%
KM12
  inhibition at 10 µM: < 10%
A549/ATCC
  inhibition at 10 µM: < 10%
CCRF-CEM
  inhibition at 10 µM: < 10%
HS 578 T
  inhibition at 10 µM: < 10%
SN12C
  inhibition at 10 µM: < 10%
HCT-15
  inhibition at 10 µM: 11.5%
OVCAR-4
  inhibition at 10 µM: < 10%
MDA-MB-468
  inhibition at 10 µM: 29.1%
UACC-257; UACC-257, UACC-257
  inhibition at 10 µM: < 10%
MOLT-4
  inhibition at 10 µM: 18%
SR
  inhibition at 10 µM: 14.6%
M14
  inhibition at 10 µM: < 10%
UACC-62
  inhibition at 10 µM: < 10%
SW-620
  inhibition at 10 µM: < 10%
[1]; mean over cell lines
  percentage mean growth (MG): 92.62%
T-47D
  inhibition at 10 µM: 18.6%
COLO 205
  inhibition at 10 µM: < 10%
HCC-2998
  inhibition at 10 µM: < 10%
A498
  inhibition at 10 µM: 13.7%
TK-10
  inhibition at 10 µM: < 10%
